Data taken from patent publication US11732000B2, “Oxysterols and methods of use thereof” (Sage Therapeutics, Inc., priority 2015, dated 2023).

Target: T1, GlunN1/GluN2A glutamate receptors (Homo sapiens, UniProt Q05586+Q12879)
T1 construct: expressed in transfected cells
Test: NMDA potentiation, whole-cell patch clamp of mammalian cells (IonWorks Barracuda, IWB)
Format: cell-based
Conditions: 3 μM test article, HEK293 cells expressing human GRIN1/GRIN2A, co-application with EC20 L-glutamate and 30 μM glycine; for activation at 3 µM: read-out: GluN2A PCA IWB Ephys % potentiation at 3 μM
Description: NMDA potentiation was assessed using either whole cell patch clamp of mammalian cells which expressed NMDA receptors.
Whole-Cell Patch Clamp of Mammalian Cells (IONWORKS BARRACUDA® (IWB))
The whole-cell patch-clamp technique was used to investigate the effects of compounds GlunN1/GluN2A glutamate receptors expressed in mammalian cells.
HEK293 cells were transformed with adenovirus 5 DNA and transfected with cDNA encoding the human GRIN1/GRIN2A genes. Stable transfectants were selected using G418 and ZEOCIN™ (phleomycins)-resistance genes incorporated into the expression plasmid and selection pressure maintained with G418 and ZEOCIN™ (phleomycins) in the medium. Cells were cultured in Dulbecco's Modified Eagle Medium/Nutrient Mixture (D-MEM/F-12) supplemented with 10% fetal bovine serum, 100 μg/ml penicillin G sodium, 100 μg/ml streptomycin sulphate, 100 μg/ml Zeocin, 5 μg/ml blasticidin and 500 μg/ml G418.
Test article effects were evaluated in 8-point concentration-response format (4 replicate wells/concentration). All test and control solutions contained 0.3% DMSO and 0.01% KOLLIPHOR® (polyethoxylated castor oil) EL (C5135, Sigma). The test article formulations were loaded in a 384-well compound plate using an automated liquid handling system (SCICLONE® ALH3000, Caliper Life Sciences). The measurements were performed using IWB platform following this procedure:
Electrophysiological Procedures:
• a) Intracellular solution (mM): 50 mM CsCl, 90 mM CsF, 2 mM MgCl2, 5 mM EGTA, 10 mM HEPES. Adjust to pH 7.2 with CsOH. • b) Extracellular solution, HB-PS (composition in mM): NaCl, 137; KCl, 1.0; CaCl2), 5; HEPES, 10; Glucose, 10; pH adjusted to 7.4 with NaOH (refrigerated until use). • c) Holding potential: −70 mV, potential during agonist/PAM application: −40 mV. Recording Procedure: • a) Extracellular buffer will be loaded into the PPC plate wells (11 μL per well). Cell suspension will be pipetted into the wells (9 μL per well) of the PPC planar electrode. • b) Whole-cell recording configuration will be established via patch perforation with membrane currents recorded by on-board patch clamp amplifiers. • c) Two recordings (scans) will be performed. First, during pre-application of test article alone (duration of pre-application −5 min) and second, during test articles and agonist (EC20 L-glutamate and 30 μM glycine) co-application to detect positive modulatory effects of the test article.
Test Article Administration: The first pre-application will consist of the addition of 20 μL of 2× concentrated test article solution and, second, of 20 μL of 1× concentrated test article and agonist at 10 μL/s (2 second total application time).

T1 sequence (Q12879 23-1464, other chains not shown): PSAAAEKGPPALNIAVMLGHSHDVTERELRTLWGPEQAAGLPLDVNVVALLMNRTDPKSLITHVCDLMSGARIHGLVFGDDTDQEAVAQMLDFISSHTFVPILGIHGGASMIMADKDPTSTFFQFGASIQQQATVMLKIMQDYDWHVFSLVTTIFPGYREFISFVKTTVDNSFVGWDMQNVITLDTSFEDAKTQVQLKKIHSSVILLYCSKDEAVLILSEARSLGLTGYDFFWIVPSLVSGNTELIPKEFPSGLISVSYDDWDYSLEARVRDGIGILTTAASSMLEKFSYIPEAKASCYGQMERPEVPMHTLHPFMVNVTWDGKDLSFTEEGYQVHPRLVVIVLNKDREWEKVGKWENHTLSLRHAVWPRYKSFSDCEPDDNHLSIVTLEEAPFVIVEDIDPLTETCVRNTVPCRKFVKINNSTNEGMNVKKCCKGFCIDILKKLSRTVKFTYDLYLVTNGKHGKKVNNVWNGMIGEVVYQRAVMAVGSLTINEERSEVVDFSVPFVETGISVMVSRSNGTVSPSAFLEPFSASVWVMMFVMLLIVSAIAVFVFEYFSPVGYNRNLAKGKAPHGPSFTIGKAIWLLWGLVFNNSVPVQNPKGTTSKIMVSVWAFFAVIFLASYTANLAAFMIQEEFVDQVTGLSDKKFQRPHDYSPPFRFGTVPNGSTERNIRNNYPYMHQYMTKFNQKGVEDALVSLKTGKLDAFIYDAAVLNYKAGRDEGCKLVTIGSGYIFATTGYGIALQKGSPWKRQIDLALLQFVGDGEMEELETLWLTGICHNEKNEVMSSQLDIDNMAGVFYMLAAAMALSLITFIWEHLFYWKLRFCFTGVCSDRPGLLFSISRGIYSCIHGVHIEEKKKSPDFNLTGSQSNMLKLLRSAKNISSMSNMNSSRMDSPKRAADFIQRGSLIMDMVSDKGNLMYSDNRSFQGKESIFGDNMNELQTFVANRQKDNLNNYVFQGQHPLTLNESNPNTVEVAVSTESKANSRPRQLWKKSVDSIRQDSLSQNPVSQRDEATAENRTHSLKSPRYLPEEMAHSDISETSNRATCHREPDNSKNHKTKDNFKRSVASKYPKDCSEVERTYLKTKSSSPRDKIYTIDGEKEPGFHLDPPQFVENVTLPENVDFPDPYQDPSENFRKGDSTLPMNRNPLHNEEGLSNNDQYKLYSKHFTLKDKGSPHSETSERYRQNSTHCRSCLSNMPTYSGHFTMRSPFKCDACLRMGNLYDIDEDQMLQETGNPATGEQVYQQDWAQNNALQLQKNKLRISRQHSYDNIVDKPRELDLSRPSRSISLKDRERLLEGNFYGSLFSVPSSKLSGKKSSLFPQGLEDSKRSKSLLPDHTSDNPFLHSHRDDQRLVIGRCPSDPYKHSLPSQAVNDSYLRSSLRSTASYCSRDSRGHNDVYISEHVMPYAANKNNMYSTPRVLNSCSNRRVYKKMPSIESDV

GluN2A PCA IWB Ephys % potentiation at 3 μM | Compound | activation at 3 µM [%]
– | CC[C@H](O)CC[C@@H](C)[C@H]1CC[C@H]2[C@@H]3CC[C@H]4C[C@@](C)(O)CC[C@]4(C)[C@H]3CC[C@]12C [Compound 9] | 75 to 150
– | CC[C@]1(O)CC[C@@]2(C)C(=CC[C@H]3[C@@H]4CC[C@H]([C@H](C)CC[C@H](O)C(C)C)[C@@]4(C)CC[C@@H]32)C1 [Compound 10] | > 150
– | CC[C@]1(O)CC[C@@]2(C)C(=CC[C@H]3[C@@H]4CC[C@H]([C@H](C)CC[C@@H](O)C(C)C)[C@@]4(C)CC[C@@H]32)C1 [Compound 11] | > 150
– | CC[C@]1(O)CC[C@@]2(C)[C@@H](CC[C@@H]3[C@@H]2CC[C@]2(C)[C@@H]([C@H](C)CC[C@H](O)C(C)C)CC[C@@H]32)C1 [Compound 13] | > 150
C (“C” indicates potentiation of >150%) | CC[C@]1(O)CC[C@@]2(C)[C@@H](CC[C@@H]3[C@@H]2CC[C@]2(C)[C@@H]([C@H](C)CC[C@@H](O)C(C)C)CC[C@@H]32)C1 [Compound 15] | –
– | CC(C)[C@H](O)CC[C@@H](C)[C@H]1CC[C@H]2[C@@H]3CC=C4C[C@@](C)(O)CC[C@]4(C)[C@H]3CC[C@]12C [Compound 19] | > 150
– | CC[C@H](O)CC[C@@H](C)[C@H]1CC[C@H]2[C@@H]3CC=C4C[C@](O)(CC)CC[C@]4(C)[C@H]3CC[C@]12C [Compound 23] | > 150
C (“C” indicates potentiation of >150%) | CC[C@]1(O)CC[C@@]2(C)C(=CC[C@H]3[C@@H]4CC[C@H]([C@H](C)CC[C@@H](O)C5CC5)[C@@]4(C)CC[C@@H]32)C1 [Compound 26] | –
C (“C” indicates potentiation of >150%) | C[C@H](CC[C@H](O)C1CC1)[C@H]1CC[C@H]2[C@@H]3CC=C4C[C@@](C)(O)CC[C@]4(C)[C@H]3CC[C@]12C [Compound 28] | –
– | C[C@H](CCC(O)C1CC1)[C@H]1CC[C@H]2[C@@H]3CC[C@H]4C[C@@](C)(O)CC[C@]4(C)[C@H]3CC[C@]12C (stereo partly shown) [Compound 30] | > 150
C (“C” indicates potentiation of >150%) | C[C@H](CC[C@@H](O)C1CC1)[C@H]1CC[C@H]2[C@@H]3CC[C@H]4C[C@@](C)(O)CC[C@]4(C)[C@H]3CC[C@]12C [Compound 32] | –
– | CC[C@]1(O)CC[C@@]2(C)[C@@H](CC[C@@H]3[C@@H]2CC[C@]2(C)[C@@H]([C@H](C)CCC(C)O)CC[C@@H]32)C1 (stereo partly shown) [Compound 33] | 10 to 75
– | CCC(O)CC[C@@H](C)[C@H]1CC[C@H]2[C@@H]3CC[C@H]4C[C@](O)(CC)CC[C@]4(C)[C@H]3CC[C@]12C (stereo partly shown) [Compound 34] | > 150
– | CC[C@@H](O)CC[C@@H](C)[C@H]1CC[C@H]2[C@@H]3CC[C@H]4C[C@](O)(CC)CC[C@]4(C)[C@H]3CC[C@]12C [Compound 35] | 75 to 150
– | CC[C@H](O)CC[C@@H](C)[C@H]1CC[C@H]2[C@@H]3CC[C@H]4C[C@](O)(CC)CC[C@]4(C)[C@H]3CC[C@]12C [Compound 36] | > 150
– | CC[C@]1(O)CC[C@@]2(C)[C@@H](CC[C@@H]3[C@@H]2CC[C@]2(C)[C@@H]([C@H](C)CCC(O)C4CC4)CC[C@@H]32)C1 (stereo partly shown) [Compound 38] | > 150
– | CC[C@]1(O)CC[C@@]2(C)[C@@H](CC[C@@H]3[C@@H]2CC[C@]2(C)[C@@H]([C@H](C)CC[C@H](O)C4CC4)CC[C@@H]32)C1 [Compound 39] | 10 to 75
– | CC[C@]1(O)CC[C@@]2(C)[C@@H](CC[C@@H]3[C@@H]2CC[C@]2(C)[C@@H]([C@H](C)CC[C@@H](O)C4CC4)CC[C@@H]32)C1 [Compound 40] | > 150
C (“C” indicates potentiation of >150%) | C[C@H](CC[C@H](O)C1CCC1)[C@H]1CC[C@H]2[C@@H]3CC=C4C[C@@](C)(O)CC[C@]4(C)[C@H]3CC[C@]12C [Compound 41-A] | –
– | C[C@H](CC[C@@H](O)C1CCC1)[C@H]1CC[C@H]2[C@@H]3CC=C4C[C@@](C)(O)CC[C@]4(C)[C@H]3CC[C@]12C [Compound 41-B] | > 150
C (“C” indicates potentiation of >150%) | C[C@H](CC[C@H](O)C1CCOCC1)[C@H]1CC[C@H]2[C@@H]3CC=C4C[C@@](C)(O)CC[C@]4(C)[C@H]3CC[C@]12C [Compound 44-A] | –
– | C[C@H](CCC(O)C1CCOCC1)[C@H]1CC[C@H]2[C@@H]3CC=C4C[C@@](C)(O)CC[C@]4(C)[C@H]3CC[C@]12C (stereo partly shown) [Compound 44] | > 150
– | C[C@H](CC[C@H](O)CC(F)(F)F)[C@H]1CC[C@H]2[C@@H]3CC=C4C[C@@](C)(O)CC[C@]4(C)[C@H]3CC[C@]12C [Compound 45] | > 150
– | C[C@H](CC[C@@H](O)CC(F)(F)F)[C@H]1CC[C@H]2[C@@H]3CC=C4C[C@@](C)(O)CC[C@]4(C)[C@H]3CC[C@]12C [Compound 46] | > 150
– | C[C@H](CC[C@H](O)CC(F)(F)F)[C@H]1CC[C@H]2[C@@H]3CC[C@H]4C[C@@](C)(O)CC[C@]4(C)[C@H]3CC[C@]12C [Compound 47] | > 150
– | C[C@H](CC[C@@H](O)CC(F)(F)F)[C@H]1CC[C@H]2[C@@H]3CC[C@H]4C[C@@](C)(O)CC[C@]4(C)[C@H]3CC[C@]12C [Compound 48] | > 150
– | CC[C@]1(O)CC[C@@]2(C)C(=CC[C@H]3[C@@H]4CC[C@H]([C@H](C)CCC(O)CC(F)(F)F)[C@@]4(C)CC[C@@H]32)C1 (stereo partly shown) [Compound 52] | > 150
C (“C” indicates potentiation of >150%) | CC[C@]1(O)CC[C@@]2(C)C(=CC[C@H]3[C@@H]4CC[C@H]([C@H](C)CC[C@H](O)CC(F)(F)F)[C@@]4(C)CC[C@@H]32)C1 [Compound 53] | –
– | CC[C@]1(O)CC[C@@]2(C)C(=CC[C@H]3[C@@H]4CC[C@H]([C@H](C)CC[C@@H](O)CC(F)(F)F)[C@@]4(C)CC[C@@H]32)C1 [Compound 54] | > 150

Compound | GluN2A PCA IWB Ephys % potentiation at 3 μM | activation at 3 µM [%]
CC[C@]1(O)CC[C@@]2(C)C(=CC[C@H]3[C@@H]4CC[C@H]([C@H](C)CC[C@H](O)C5CC5)[C@@]4(C)CC[C@@H]32)C1 (single isomer, unassigned) [Compound 25] | C (“C” indicates potentiation of >150%) | –
C[C@H](CC[C@@H](O)C1CC1)[C@H]1CC[C@H]2[C@@H]3CC=C4C[C@@](C)(O)CC[C@]4(C)[C@H]3CC[C@]12C [Compound 29] | B (“B” indicates potentiation of >75% to 150%) | –
